Test results taken from patent US9107905B2 (Agency for Science, Technology and Research, priority 2006, dated 2015).
Where two headings read alike, the source gives them in different places.

Experiments:
[1] = tested on: C. albicans yeast cells; assay: hyphal induction assay (germ tube formation, yeast-hypha switch); assay type: cell-based, Candida albicans; conditions: for EC50: read-out: I50 (hyphal induction); for hypha-inducing activity: result in words
[2] = tested on: GST-LRR fusion protein (LRR domain of CaCdc35p); assay: circular dichroism (CD) spectroscopy of recombinant LRR domain; assay type: binding, Candida albicans
Source text: Next, the possibility that MLA 71Q may directly bind to the LRR domain of CaCdc35p was explored. The wild-type LRR domain and that of Irr9mu were expressed in E. coli as glutathione-S-transferase (GST) fusions and purified to high homogeneity. Then circular dichroism (CD) spectroscopy was used to detect possible direct interaction between the LRR domain and MLADIQ. CD is a reliable tool in detecting conformational changes in a protein as a result of ligand binding (Woody, R. W. (1995). Methods Enzymol. 246, 34-71).

[3] = target: GST-LRR fusion (LRR domain of CaCdc35p) (Candida albicans, UniProt A0A1D8PR83); assay: tryptophan fluorescence quenching of recombinant LRR domain; assay type: binding; conditions: for Kd: nonlinear regression of fluorescence quenching, read-out: equilibrium dissociation constant (Kd); for fluorescence quenching: result in words
Chain of GST-LRR fusion (LRR domain of CaCdc35p) (A0A1D8PR83 entry or part of it): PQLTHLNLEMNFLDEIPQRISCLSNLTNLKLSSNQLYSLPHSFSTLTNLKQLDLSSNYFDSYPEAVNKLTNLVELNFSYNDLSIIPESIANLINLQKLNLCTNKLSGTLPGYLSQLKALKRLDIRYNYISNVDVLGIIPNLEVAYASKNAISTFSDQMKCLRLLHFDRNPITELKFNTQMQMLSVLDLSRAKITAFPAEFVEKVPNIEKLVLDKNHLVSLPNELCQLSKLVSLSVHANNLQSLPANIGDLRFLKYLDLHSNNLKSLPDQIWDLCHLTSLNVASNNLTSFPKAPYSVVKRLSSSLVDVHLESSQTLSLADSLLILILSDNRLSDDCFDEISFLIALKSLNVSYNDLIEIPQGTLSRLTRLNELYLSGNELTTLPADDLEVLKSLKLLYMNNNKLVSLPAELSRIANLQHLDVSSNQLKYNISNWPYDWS
Source text: Since specific binding of a molecule to a tryptophan-containing protein may cause concentration-dependent quenching; of tryptophan fluorescence, fluorescence spectroscopy was used to measure the intensity of tryptophan fluorescence of the recombinant LRR domains in the presence of different concentrations of MLADiQ. […] The fluorescence spectrum of GST was not affected by any of the compounds used.

[4] = synthetic compounds and reference inducer

SMILES	shift of the ellipticity values of the CD spectra [2]	Kd [3]	fluorescence quenching [3]	hypha-inducing activity [1]	EC50 [1, 4]	also measured
C[C@H](NC(=O)[C@@H](C)O[C@H]1[C@H](O)[C@@H](CO)OC(O)[C@@H]1N)C(=O)O (stereo partly drawn)	weaker but consistent spectrum shift	1.67 ± 0.13 µM	lower levels of fluorescence quenching	–	–	EC50 ([1]; synthetic compounds): ~200 µM
CC(=O)N[C@H]1C(O)O[C@H](CO)[C@@H](O)[C@@H]1O[C@H](C)C(=O)O (stereo partly drawn) [N-acetylmuramic acid, reference compound]	–	–	–	Neither muramic nor N-acetylmuramic acid was active	–	–
CC(=O)N[C@H]1C(O)O[C@H](CO)[C@@H](O)[C@@H]1O (stereo partly drawn) [NAG, N-Acetylglucosamine, reference compound]	weaker but consistent spectrum shift	6.8 ± 0.32 µM	lower levels of fluorescence quenching	–	~3000 µM	–
CC(=O)NC1C(O)OC(CO)C(O)C1OC(C)C(=O)NC(C)C(=O)O [NMLA, N-acetylmurmyl-L-alanine]	–	–	–	–	~8000 µM	–
CC(=O)NC1C(O)OC(CO)C(O)C1OC(C)C(=O)NC(C)C(=O)NC(CCC(=O)O)C(N)=O [NMLADiQ, N-acetylmuramyl-L-alanyl-D isoglutamine]	weaker but consistent spectrum shift	5.26 ± 0.47 µM	lower levels of fluorescence quenching	–	~6000 µM	concentration above which the activity started to drop significantly [1]: above 20 mM; highest germ tube formation induced ([1]; at increased concentrations): ≤ 60%; times less active than MLADiQ ([1]; from I50): 600 times
O=C(CO)[C@@H](O)[C@H](O)[C@H](O)CO [fructose, reference compound]	–	–	–	none of these compounds was found to have appreciable hypha-inducing activity	–	–
OCC(O)CO [glycerol, reference compound]	–	–	–	none of these compounds was found to have appreciable hypha-inducing activity	–	–
CC(O)C(=O)O (stereo not drawn) [lactic acid, reference compound]	–	–	–	none of these compounds was found to have appreciable hypha-inducing activity	–	–
C[C@@H](O[C@H]1[C@H](O)[C@@H](CO)OC(O)[C@@H]1N)C(=O)O (stereo partly drawn) [muramic, muramic acid, reference compound]	–	–	–	Neither muramic nor N-acetylmuramic acid was active	–	–
